Data published in paper PMC4979471 (Cell Death Discovery, 2015).
Read-outs that look alike come from different tables or passages of the source.

What was measured:
Test in all cases: Kinase selectivity, P33-radiolabeled assay
Type in all cases: biochemical
Conditions in all cases: 10 μM ATP
ACK1 = biological target: T1, ACK1 (Homo sapiens, UniProt Q07912)
T1 construct: purchased Reaction Biology Corp
Procedure, shortened: (§1)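 Reactions contained 10 μM ATP and 10 μM test compound, each run in duplicate. Kinase activity is expressed as a percentage of DMSO-treated controls.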

AKT2 = biological target: T2, AKT2 (Homo sapiens, UniProt P31751)
T2 construct: purchased Reaction Biology Corp
Procedure, shortened: as §1

ASK1/MAP3K5 = biological target: T3, ASK1/MAP3K5 (Homo sapiens, UniProt Q99683)
T3 construct: purchased Reaction Biology Corp
T3 sequence (Q99683 1-1374): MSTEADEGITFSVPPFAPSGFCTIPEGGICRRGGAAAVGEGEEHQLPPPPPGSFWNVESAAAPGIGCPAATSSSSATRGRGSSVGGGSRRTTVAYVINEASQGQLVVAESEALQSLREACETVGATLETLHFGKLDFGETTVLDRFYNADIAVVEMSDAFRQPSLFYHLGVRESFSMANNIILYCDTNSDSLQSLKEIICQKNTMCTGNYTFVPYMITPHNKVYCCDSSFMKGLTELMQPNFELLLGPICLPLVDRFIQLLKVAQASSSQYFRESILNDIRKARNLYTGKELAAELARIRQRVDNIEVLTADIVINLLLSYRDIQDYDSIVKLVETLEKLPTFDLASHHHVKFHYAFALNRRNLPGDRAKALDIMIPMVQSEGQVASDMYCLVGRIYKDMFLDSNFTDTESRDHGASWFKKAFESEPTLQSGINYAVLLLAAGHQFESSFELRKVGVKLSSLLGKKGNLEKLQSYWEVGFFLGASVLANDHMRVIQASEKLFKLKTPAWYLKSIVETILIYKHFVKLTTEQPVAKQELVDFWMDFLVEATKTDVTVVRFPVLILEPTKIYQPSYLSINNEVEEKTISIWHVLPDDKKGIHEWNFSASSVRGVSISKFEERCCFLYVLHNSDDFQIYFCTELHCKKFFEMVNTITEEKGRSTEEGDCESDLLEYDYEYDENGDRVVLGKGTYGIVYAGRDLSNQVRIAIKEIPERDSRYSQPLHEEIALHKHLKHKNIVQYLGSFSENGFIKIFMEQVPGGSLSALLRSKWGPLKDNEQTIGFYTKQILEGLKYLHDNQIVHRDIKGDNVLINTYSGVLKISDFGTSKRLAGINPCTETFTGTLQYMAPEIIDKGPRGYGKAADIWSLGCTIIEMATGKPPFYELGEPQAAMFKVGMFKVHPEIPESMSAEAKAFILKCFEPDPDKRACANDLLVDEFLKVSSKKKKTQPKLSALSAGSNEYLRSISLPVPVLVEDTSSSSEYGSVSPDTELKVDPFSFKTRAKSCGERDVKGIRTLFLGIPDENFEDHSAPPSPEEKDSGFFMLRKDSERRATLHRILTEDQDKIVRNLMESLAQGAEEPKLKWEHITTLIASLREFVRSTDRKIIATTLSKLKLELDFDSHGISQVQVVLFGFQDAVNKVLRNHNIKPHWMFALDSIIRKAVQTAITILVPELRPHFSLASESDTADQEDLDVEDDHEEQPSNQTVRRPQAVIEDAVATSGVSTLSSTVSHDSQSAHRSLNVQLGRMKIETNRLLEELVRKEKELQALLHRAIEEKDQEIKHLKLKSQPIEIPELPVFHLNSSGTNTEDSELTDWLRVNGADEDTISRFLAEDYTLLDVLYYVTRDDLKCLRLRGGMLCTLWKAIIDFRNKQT
Procedure, shortened: as §1

CDK9/cyclin K = biological target: T4, CDK9/cyclin K (Homo sapiens, UniProt P50750)
T4 construct: purchased Reaction Biology Corp
Procedure, shortened: as §1

CK1a1 = biological target: T5, CK1a1 (Homo sapiens, UniProt P48729)
T5 construct: purchased Reaction Biology Corp
Procedure, shortened: as §1

FAK/PTK2 = biological target: T6, FAK/PTK2 (Homo sapiens, UniProt Q05397)
T6 construct: purchased Reaction Biology Corp
Procedure, shortened: as §1

HCK = biological target: T7, HCK (Homo sapiens, UniProt P08631)
T7 construct: purchased Reaction Biology Corp
Procedure, shortened: as §1

MEKK3 = biological target: T8, MEKK3 (Homo sapiens, UniProt Q99759)
T8 construct: purchased Reaction Biology Corp
T8 sequence (Q99759 1-626): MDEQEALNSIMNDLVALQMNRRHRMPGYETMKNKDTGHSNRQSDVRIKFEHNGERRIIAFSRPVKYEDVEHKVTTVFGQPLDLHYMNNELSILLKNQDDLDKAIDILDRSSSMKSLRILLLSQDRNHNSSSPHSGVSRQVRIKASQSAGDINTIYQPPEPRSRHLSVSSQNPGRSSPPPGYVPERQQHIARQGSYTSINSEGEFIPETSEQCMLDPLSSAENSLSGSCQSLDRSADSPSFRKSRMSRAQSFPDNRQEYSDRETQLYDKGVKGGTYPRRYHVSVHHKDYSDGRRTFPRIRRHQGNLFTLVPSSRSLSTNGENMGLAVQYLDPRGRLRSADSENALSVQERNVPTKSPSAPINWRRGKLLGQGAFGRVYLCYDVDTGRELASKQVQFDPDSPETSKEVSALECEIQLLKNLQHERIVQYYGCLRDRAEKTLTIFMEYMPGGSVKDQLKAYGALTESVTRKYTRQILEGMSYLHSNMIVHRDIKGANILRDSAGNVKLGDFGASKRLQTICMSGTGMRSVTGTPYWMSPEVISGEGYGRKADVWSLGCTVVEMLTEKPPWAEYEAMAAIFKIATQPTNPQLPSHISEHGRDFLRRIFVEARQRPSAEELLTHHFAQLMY
Procedure, shortened: as §1

PASK = biological target: T9, PASK (Homo sapiens, UniProt Q96RG2)
T9 construct: purchased Reaction Biology Corp
Procedure, shortened: as §1

STK39/STLK3 = biological target: T10, STK39/STLK3 (Homo sapiens, UniProt Q9UEW8)
T10 construct: purchased Reaction Biology Corp
Procedure, shortened: as §1

c-MET = biological target: T11, c-MET (Homo sapiens, UniProt P08581)
T11 construct: purchased Reaction Biology Corp
Procedure, shortened: as §1

[1] = read-out: % Enzyme Activity (relative to DMSO controls) AVG
[2] = read-out: % Enzyme Activity (relative to DMSO controls) Data 1
[3] = read-out: % Enzyme Activity (relative to DMSO controls) Data 2

T5 sequence (P48729 whole entry): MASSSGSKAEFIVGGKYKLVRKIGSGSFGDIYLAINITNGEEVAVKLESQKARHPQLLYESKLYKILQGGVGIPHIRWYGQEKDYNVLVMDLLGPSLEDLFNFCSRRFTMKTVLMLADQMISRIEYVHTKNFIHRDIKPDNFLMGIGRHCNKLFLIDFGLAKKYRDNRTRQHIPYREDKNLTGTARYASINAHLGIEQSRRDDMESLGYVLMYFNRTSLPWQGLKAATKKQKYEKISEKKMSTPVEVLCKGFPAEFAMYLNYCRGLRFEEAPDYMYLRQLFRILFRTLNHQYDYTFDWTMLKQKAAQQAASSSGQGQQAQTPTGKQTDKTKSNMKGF
T7 sequence (P08631 whole entry): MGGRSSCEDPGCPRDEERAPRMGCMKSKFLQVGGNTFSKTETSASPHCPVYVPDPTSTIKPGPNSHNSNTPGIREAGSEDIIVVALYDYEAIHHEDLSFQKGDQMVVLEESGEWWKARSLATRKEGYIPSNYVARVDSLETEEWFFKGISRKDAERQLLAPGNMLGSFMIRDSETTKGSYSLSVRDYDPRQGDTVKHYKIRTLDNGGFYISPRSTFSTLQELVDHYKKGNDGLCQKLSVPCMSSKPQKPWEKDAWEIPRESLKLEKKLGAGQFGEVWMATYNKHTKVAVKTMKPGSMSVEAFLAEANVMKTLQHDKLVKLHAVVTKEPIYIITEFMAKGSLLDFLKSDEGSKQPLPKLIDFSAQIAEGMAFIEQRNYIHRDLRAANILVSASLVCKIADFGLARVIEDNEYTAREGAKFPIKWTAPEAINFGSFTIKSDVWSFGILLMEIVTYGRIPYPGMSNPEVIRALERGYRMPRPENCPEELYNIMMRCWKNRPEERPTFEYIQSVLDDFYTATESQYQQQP
T6 sequence (Q05397 whole entry): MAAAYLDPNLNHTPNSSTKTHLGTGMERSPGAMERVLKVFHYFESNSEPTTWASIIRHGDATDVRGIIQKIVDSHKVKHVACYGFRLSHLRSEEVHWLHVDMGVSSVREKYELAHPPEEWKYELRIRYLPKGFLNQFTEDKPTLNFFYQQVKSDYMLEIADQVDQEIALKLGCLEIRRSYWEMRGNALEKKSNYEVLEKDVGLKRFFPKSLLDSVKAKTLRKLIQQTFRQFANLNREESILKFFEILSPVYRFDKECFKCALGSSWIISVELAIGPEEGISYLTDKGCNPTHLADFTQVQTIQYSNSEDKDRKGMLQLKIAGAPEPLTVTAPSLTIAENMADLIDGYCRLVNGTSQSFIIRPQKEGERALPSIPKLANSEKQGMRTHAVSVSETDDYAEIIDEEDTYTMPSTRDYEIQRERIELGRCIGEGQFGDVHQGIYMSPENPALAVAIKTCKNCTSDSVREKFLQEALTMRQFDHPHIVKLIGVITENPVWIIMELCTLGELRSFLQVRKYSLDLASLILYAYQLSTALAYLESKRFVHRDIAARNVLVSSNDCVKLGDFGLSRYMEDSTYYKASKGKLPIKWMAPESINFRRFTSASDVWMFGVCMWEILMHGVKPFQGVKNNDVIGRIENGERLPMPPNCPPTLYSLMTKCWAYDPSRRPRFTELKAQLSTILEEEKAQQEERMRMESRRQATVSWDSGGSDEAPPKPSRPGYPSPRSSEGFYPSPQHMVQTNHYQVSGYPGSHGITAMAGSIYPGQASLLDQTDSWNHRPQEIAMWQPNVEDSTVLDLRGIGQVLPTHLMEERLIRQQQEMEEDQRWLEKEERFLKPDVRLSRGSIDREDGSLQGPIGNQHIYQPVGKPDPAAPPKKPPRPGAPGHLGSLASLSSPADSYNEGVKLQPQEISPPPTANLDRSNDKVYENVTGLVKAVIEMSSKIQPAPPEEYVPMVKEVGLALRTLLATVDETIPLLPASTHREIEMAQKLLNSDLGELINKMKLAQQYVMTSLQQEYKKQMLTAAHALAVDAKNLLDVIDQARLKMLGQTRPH
T1 sequence (Q07912 whole entry): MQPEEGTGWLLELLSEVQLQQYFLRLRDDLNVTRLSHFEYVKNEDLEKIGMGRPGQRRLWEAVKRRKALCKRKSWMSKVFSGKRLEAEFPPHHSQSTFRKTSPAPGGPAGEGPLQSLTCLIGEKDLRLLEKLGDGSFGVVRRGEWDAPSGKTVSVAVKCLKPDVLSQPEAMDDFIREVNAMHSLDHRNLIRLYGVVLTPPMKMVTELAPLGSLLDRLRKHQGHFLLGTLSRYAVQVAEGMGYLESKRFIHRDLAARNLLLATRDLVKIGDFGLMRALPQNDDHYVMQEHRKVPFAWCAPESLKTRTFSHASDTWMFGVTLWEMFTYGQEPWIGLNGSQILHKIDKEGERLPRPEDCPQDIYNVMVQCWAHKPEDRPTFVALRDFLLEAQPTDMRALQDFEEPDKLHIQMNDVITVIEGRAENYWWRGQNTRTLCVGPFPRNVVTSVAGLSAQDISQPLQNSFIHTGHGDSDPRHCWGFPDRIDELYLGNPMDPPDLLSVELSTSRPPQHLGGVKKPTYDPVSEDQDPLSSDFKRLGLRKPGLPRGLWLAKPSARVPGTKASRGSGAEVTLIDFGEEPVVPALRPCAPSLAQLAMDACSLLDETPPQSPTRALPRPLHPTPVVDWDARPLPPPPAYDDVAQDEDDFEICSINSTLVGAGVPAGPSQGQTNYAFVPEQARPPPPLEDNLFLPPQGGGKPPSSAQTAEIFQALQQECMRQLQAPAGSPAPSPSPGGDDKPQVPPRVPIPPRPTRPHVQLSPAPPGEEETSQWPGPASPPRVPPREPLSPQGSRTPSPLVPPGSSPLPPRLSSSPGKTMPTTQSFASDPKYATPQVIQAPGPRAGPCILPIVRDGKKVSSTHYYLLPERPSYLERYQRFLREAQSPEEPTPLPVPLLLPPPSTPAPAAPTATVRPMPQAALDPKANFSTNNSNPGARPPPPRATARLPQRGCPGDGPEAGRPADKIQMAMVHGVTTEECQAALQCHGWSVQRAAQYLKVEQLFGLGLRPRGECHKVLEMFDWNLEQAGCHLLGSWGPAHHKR
T11 sequence (P08581 25-1390): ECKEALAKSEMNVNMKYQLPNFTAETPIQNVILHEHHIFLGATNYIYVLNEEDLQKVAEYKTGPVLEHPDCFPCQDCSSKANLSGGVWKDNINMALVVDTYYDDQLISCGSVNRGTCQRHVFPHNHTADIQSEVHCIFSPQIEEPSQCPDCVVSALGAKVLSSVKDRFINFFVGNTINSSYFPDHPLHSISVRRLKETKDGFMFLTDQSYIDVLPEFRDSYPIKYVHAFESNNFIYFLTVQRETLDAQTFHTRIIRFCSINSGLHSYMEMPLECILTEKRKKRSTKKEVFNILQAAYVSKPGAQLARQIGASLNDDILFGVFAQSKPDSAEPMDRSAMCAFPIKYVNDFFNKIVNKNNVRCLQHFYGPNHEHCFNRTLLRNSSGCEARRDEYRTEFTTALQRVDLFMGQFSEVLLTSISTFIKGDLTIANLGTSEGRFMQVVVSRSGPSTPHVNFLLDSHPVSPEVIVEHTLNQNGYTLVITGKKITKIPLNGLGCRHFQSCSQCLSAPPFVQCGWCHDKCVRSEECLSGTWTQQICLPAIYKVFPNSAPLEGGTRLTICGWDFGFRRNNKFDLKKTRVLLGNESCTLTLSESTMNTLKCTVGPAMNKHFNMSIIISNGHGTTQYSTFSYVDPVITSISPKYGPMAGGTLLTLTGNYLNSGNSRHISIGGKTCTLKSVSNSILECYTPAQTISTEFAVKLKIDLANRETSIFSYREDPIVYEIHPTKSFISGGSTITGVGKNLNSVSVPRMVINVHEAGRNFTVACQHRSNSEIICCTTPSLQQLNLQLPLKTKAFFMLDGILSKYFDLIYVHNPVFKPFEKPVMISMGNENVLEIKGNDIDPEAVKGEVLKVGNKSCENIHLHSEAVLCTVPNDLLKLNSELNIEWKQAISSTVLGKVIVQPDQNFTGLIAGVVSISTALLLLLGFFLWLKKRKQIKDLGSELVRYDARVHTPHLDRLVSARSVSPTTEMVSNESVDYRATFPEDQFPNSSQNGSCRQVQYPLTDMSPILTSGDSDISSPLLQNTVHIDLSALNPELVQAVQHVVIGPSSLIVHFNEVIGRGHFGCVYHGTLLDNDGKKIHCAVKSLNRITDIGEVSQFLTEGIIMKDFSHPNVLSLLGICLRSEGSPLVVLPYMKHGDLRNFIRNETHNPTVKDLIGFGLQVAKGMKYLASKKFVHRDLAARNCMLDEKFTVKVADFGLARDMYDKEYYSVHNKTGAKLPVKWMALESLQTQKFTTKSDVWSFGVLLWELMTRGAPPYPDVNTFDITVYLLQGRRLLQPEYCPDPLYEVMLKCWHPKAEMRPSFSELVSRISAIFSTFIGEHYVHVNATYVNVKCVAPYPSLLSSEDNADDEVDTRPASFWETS
T2 sequence (P31751 whole entry): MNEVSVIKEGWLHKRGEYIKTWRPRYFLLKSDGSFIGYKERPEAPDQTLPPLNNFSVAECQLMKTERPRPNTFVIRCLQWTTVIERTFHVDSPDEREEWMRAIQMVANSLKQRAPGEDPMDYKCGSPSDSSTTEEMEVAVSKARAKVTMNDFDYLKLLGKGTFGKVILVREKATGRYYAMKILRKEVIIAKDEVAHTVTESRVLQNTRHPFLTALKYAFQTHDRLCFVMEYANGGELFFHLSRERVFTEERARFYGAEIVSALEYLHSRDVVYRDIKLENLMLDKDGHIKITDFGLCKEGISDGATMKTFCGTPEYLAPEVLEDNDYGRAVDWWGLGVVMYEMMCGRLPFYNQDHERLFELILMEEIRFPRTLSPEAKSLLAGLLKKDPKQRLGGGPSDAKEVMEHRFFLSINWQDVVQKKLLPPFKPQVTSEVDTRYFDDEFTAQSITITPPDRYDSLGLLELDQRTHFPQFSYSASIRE

Compound: CC(C)(C)C(=O)N1N=CC[C@H]1c1ccccc1 [GSK′963]
- remaining activity at 10 µM (ACK1; [1]): 82.3%
- remaining activity at 10 µM (ACK1; [2]): 84.2%
- remaining activity at 10 µM (ACK1; [3]): 80.3%
- remaining activity at 10 µM (AKT2; [1]): 92.8%
- remaining activity at 10 µM (AKT2; [2]): 91.7%
- remaining activity at 10 µM (AKT2; [3]): 93.9%
- remaining activity at 10 µM (ASK1/MAP3K5; [1]): 98.8%
- remaining activity at 10 µM (ASK1/MAP3K5; [2]): 99.4%
- remaining activity at 10 µM (ASK1/MAP3K5; [3]): 98.1%
- remaining activity at 10 µM (CDK9/cyclin K; [1]): 114%
- remaining activity at 10 µM (CDK9/cyclin K; [2]): 112%
- remaining activity at 10 µM (CDK9/cyclin K; [3]): 116%
- remaining activity at 10 µM (CK1a1; [1]): 103%
- remaining activity at 10 µM (CK1a1; [2]): 102%
- remaining activity at 10 µM (CK1a1; [3]): 103%
- remaining activity at 10 µM (FAK/PTK2; [1]): 101%
- remaining activity at 10 µM (FAK/PTK2; [2]): 101%
- remaining activity at 10 µM (FAK/PTK2; [3]): 101%
- remaining activity at 10 µM (HCK; [1]): 96.5%
- remaining activity at 10 µM (HCK; [2]): 95.5%
- remaining activity at 10 µM (HCK; [3]): 97.6%
- remaining activity at 10 µM (MEKK3; [1]): 119%
- remaining activity at 10 µM (MEKK3; [2]): 122%
- remaining activity at 10 µM (MEKK3; [3]): 115%
- remaining activity at 10 µM (PASK; [1]): 102%
- remaining activity at 10 µM (PASK; [2]): 103%
- remaining activity at 10 µM (PASK; [3]): 101%
- remaining activity at 10 µM (STK39/STLK3; [1]): 95.1%
- remaining activity at 10 µM (STK39/STLK3; [2]): 100%
- remaining activity at 10 µM (STK39/STLK3; [3]): 89.9%
- remaining activity at 10 µM (c-MET; [1]): 94.5%
- remaining activity at 10 µM (c-MET; [2]): 90.7%
- remaining activity at 10 µM (c-MET; [3]): 98.3%
